{"source": "paper PMC5988656", "about": "“Phase I studies of AZD1208, a proviral integration Moloney virus kinase inhibitor in solid and haematological cancers” (British Journal of Cancer, 2018)", "test_system": "patients with advanced solid tumours", "assay": "Solid tumour dose-escalation study: safety and tolerability (AEs, DLTs)", "from_the_text": "Conducted at two UK centres and one in Japan. Dose escalation followed a rolling six design.[14] Patients received a single dose on Day 1 during Cycle 0, followed by a 3-day washout period, after which multiple dosing was initiated. Cycle 1 was a 21-day period from the first dose of multiple dosing.\nThe CTCAE (version 4.0) was utilised to grade all AE events.\nAEs were summarised by Medical Dictionary for Regulatory Activities (MedDRA) system organ class, MedDRA preferred term and CTCAE grade. Summary statistics of mean, median, standard deviation, minimum, maximum and number of observations were used.", "data": [{"smiles": "N[C@@H]1CCCN(c2c(/C=C3\\SC(=O)NC3=O)cccc2-c2ccccc2)C1", "note": "[AZD1208]", "values": [{"measurement": "White blood cell count decreased (all-grade AE)", "setting": "540 mg, n = 7", "value": "2 (28.6) n (%)"}, {"measurement": "Patients requiring dose interruptions because of AEs", "setting": "700 mg", "value": 3, "unit": "n"}, {"measurement": "Patients with CTCAE grade ≥3 AEs causally related to AZD1208", "setting": "700 mg (nausea, fatigue)", "value": 1, "unit": "n"}, {"measurement": "Anaemia (all-grade AE)", "setting": "700 mg, n = 6", "value": "3 (50.0) n (%)"}, {"measurement": "Constipation (all-grade AE)", "setting": "700 mg, n = 6", "value": "2 (33.3) n (%)"}, {"measurement": "Decreased appetite (all-grade AE)", "setting": "700 mg, n = 6", "value": "2 (33.3) n (%)"}, {"measurement": "Diarrhoea (all-grade AE)", "setting": "700 mg, n = 6", "value": "5 (83.3) n (%)"}, {"measurement": "Dry skin (all-grade AE)", "setting": "700 mg, n = 6", "value": "1 (16.7) n (%)"}, {"measurement": "Dyspnoea (all-grade AE)", "setting": "700 mg, n = 6", "value": "0 (0.0) n (%)"}, {"measurement": "Fatigue (all-grade AE)", "setting": "700 mg, n = 6", "value": "4 (66.7) n (%)"}, {"measurement": "GGT increased (all-grade AE)", "setting": "700 mg, n = 6", "value": "0 (0.0) n (%)"}, {"measurement": "Hyperglycaemia (all-grade AE)", "setting": "700 mg, n = 6", "value": "0 (0.0) n (%)"}, {"measurement": "Hypoalbuminaemia (all-grade AE)", "setting": "700 mg, n = 6", "value": "3 (50.0) n (%)"}, {"measurement": "Hypokalaemia (all-grade AE)", "setting": "700 mg, n = 6", "value": "1 (16.7) n (%)"}, {"measurement": "Hyponatraemia (all-grade AE)", "setting": "700 mg, n = 6", "value": "1 (16.7) n (%)"}, {"measurement": "Insomnia (all-grade AE)", "setting": "700 mg, n = 6", "value": "0 (0.0) n (%)"}, {"measurement": "Musculoskeletal chest pain (all-grade AE)", "setting": "700 mg, n = 6", "value": "1 (16.7) n (%)"}, {"measurement": "Nausea (all-grade AE)", "setting": "700 mg, n = 6", "value": "5 (83.3) n (%)"}, {"measurement": "Patients with any AE (all-grade AE)", "setting": "700 mg, n = 6", "value": "6 (100.0) n (%)"}, {"measurement": "Platelet count decreased (all-grade AE)", "setting": "700 mg, n = 6", "value": "1 (16.7) n (%)"}, {"measurement": "Pyrexia (all-grade AE)", "setting": "700 mg, n = 6", "value": "2 (33.3) n (%)"}, {"measurement": "Thrombocytopenia (all-grade AE)", "setting": "700 mg, n = 6", "value": "1 (16.7) n (%)"}, {"measurement": "Vomiting (all-grade AE)", "setting": "700 mg, n = 6", "value": "4 (66.7) n (%)"}, {"measurement": "White blood cell count decreased (all-grade AE)", "setting": "700 mg, n = 6", "value": "1 (16.7) n (%)"}, {"measurement": "Patients requiring dose interruptions because of AEs", "setting": "800 mg", "value": 2, "unit": "n"}, {"measurement": "Patients with CTCAE grade ≥3 AEs causally related to AZD1208", "setting": "800 mg (fatigue, hyperglycaemia)", "value": 3, "unit": "n"}, {"measurement": "Tolerability", "setting": "800 mg QD", "value": "not tolerated"}, {"measurement": "Abdominal pain (all-grade AE)", "setting": "800 mg, n = 6", "value": "0 (0.0) n (%)"}, {"measurement": "Anaemia (all-grade AE)", "setting": "800 mg, n = 6", "value": "2 (33.3) n (%)"}, {"measurement": "Constipation (all-grade AE)", "setting": "800 mg, n = 6", "value": "0 (0.0) n (%)"}, {"measurement": "DLT detail, action taken", "setting": "800 mg, n = 6", "value": "Fatigue, drug interrupted; fatigue, drug interrupted"}, {"measurement": "Decreased appetite (all-grade AE)", "setting": "800 mg, n = 6", "value": "3 (50.0) n (%)"}, {"measurement": "Diarrhoea (all-grade AE)", "setting": "800 mg, n = 6", "value": "6 (100.0) n (%)"}, {"measurement": "Dry skin (all-grade AE)", "setting": "800 mg, n = 6", "value": "0 (0.0) n (%)"}, {"measurement": "Dyspnoea (all-grade AE)", "setting": "800 mg, n = 6", "value": "0 (0.0) n (%)"}, {"measurement": "Fatigue (all-grade AE)", "setting": "800 mg, n = 6", "value": "5 (83.3) n (%)"}, {"measurement": "GGT increased (all-grade AE)", "setting": "800 mg, n = 6", "value": "1 (16.7) n (%)"}, {"measurement": "Hyperglycaemia (all-grade AE)", "setting": "800 mg, n = 6", "value": "2 (33.3) n (%)"}, {"measurement": "Hypoalbuminaemia (all-grade AE)", "setting": "800 mg, n = 6", "value": "0 (0.0) n (%)"}, {"measurement": "Hypokalaemia (all-grade AE)", "setting": "800 mg, n = 6", "value": "1 (16.7) n (%)"}, {"measurement": "Hyponatraemia (all-grade AE)", "setting": "800 mg, n = 6", "value": "0 (0.0) n (%)"}, {"measurement": "Insomnia (all-grade AE)", "setting": "800 mg, n = 6", "value": "1 (16.7) n (%)"}, {"measurement": "Musculoskeletal chest pain (all-grade AE)", "setting": "800 mg, n = 6", "value": "0 (0.0) n (%)"}, {"measurement": "Nausea (all-grade AE)", "setting": "800 mg, n = 6", "value": "4 (66.7) n (%)"}, {"measurement": "Patients with any AE (all-grade AE)", "setting": "800 mg, n = 6", "value": "6 (100.0) n (%)"}, {"measurement": "Platelet count decreased (all-grade AE)", "setting": "800 mg, n = 6", "value": "1 (16.7) n (%)"}, {"measurement": "Pyrexia (all-grade AE)", "setting": "800 mg, n = 6", "value": "0 (0.0) n (%)"}, {"measurement": "Thrombocytopenia (all-grade AE)", "setting": "800 mg, n = 6", "value": "1 (16.7) n (%)"}, {"measurement": "Vomiting (all-grade AE)", "setting": "800 mg, n = 6", "value": "3 (50.0) n (%)"}, {"measurement": "White blood cell count decreased (all-grade AE)", "setting": "800 mg, n = 6", "value": "0 (0.0) n (%)"}, {"measurement": "Abdominal pain (all-grade AE)", "setting": "Total N = 35", "value": "8 (22.9) n (%)"}, {"measurement": "Anaemia (all-grade AE)", "setting": "Total N = 35", "value": "18 (51.4) n (%)"}, {"measurement": "Constipation (all-grade AE)", "setting": "Total N = 35", "value": "5 (14.3) n (%)"}, {"measurement": "Decreased appetite (all-grade AE)", "setting": "Total N = 35", "value": "15 (42.9) n (%)"}, {"measurement": "Diarrhoea (all-grade AE)", "setting": "Total N = 35", "value": "29 (82.9) n (%)"}, {"measurement": "Dry skin (all-grade AE)", "setting": "Total N = 35", "value": "7 (20.0) n (%)"}, {"measurement": "Dyspnoea (all-grade AE)", "setting": "Total N = 35", "value": "4 (11.4) n (%)"}, {"measurement": "Fatigue (all-grade AE)", "setting": "Total N = 35", "value": "17 (48.6) n (%)"}, {"measurement": "GGT increased (all-grade AE)", "setting": "Total N = 35", "value": "6 (17.1) n (%)"}, {"measurement": "Hyperglycaemia (all-grade AE)", "setting": "Total N = 35", "value": "8 (22.9) n (%)"}, {"measurement": "Hypoalbuminaemia (all-grade AE)", "setting": "Total N = 35", "value": "9 (25.7) n (%)"}, {"measurement": "Hypokalaemia (all-grade AE)", "setting": "Total N = 35", "value": "4 (11.4) n (%)"}, {"measurement": "Hyponatraemia (all-grade AE)", "setting": "Total N = 35", "value": "5 (14.3) n (%)"}, {"measurement": "Insomnia (all-grade AE)", "setting": "Total N = 35", "value": "4 (11.4) n (%)"}, {"measurement": "Musculoskeletal chest pain (all-grade AE)", "setting": "Total N = 35", "value": "4 (11.4) n (%)"}, {"measurement": "Nausea (all-grade AE)", "setting": "Total N = 35", "value": "26 (74.3) n (%)"}, {"measurement": "Patients with any AE (all-grade AE)", "setting": "Total N = 35", "value": "35 (100.0) n (%)"}, {"measurement": "Platelet count decreased (all-grade AE)", "setting": "Total N = 35", "value": "9 (25.7) n (%)"}, {"measurement": "Pyrexia (all-grade AE)", "setting": "Total N = 35", "value": "6 (17.1) n (%)"}, {"measurement": "Thrombocytopenia (all-grade AE)", "setting": "Total N = 35", "value": "5 (14.3) n (%)"}, {"measurement": "Vomiting (all-grade AE)", "setting": "Total N = 35", "value": "19 (54.3) n (%)"}, {"measurement": "White blood cell count decreased (all-grade AE)", "setting": "Total N = 35", "value": "9 (25.7) n (%)"}, {"measurement": "Patients with DLTs", "setting": "all doses", "value": "Four"}, {"measurement": "AEs of grade ≥3, patients", "setting": "all doses, 35 patients", "value": 45.7, "unit": "%"}, {"measurement": "CTCAE grade ≥3 AEs causally related to AZD1208, patients", "setting": "all doses, 35 patients", "value": 28.6, "unit": "%"}, {"measurement": "CTCAE grade ≥3 GGT increase, patients", "setting": "all doses, 35 patients", "value": 8.6, "unit": "%"}, {"measurement": "CTCAE grade ≥3 abdominal pain, patients", "setting": "all doses, 35 patients", "value": 5.7, "unit": "%"}, {"measurement": "CTCAE grade ≥3 anaemia, patients", "setting": "all doses, 35 patients", "value": 5.7, "unit": "%"}, {"measurement": "CTCAE grade ≥3 fatigue, patients", "setting": "all doses, 35 patients", "value": 11.4, "unit": "%"}, {"measurement": "Diarrhoea causally related to AZD1208, patients", "setting": "all doses, 35 patients", "value": 68.6, "unit": "%"}, {"measurement": "Diarrhoea, patients", "setting": "all doses, 35 patients", "value": 82.9, "unit": "%"}, {"measurement": "Discontinued the study due to an AE, patients", "setting": "all doses, 35 patients", "value": 11.4, "unit": "%"}, {"measurement": "Dose interruptions because of AEs, patients", "setting": "all doses, 35 patients", "value": 45.7, "unit": "%"}, {"measurement": "Gastrointestinal disorders AEs, patients", "setting": "all doses, 35 patients", "value": 97.1, "unit": "%"}, {"measurement": "Nausea causally related to AZD1208, patients", "setting": "all doses, 35 patients", "value": 65.7, "unit": "%"}, {"measurement": "Nausea, patients", "setting": "all doses, 35 patients", "value": 74.3, "unit": "%"}, {"measurement": "Patients with ≥1 SAE", "setting": "all doses, 35 patients", "value": 22.9, "unit": "%"}, {"measurement": "SAE dyspnoea, patients", "setting": "all doses, 35 patients", "value": 5.7, "unit": "%"}, {"measurement": "SAE vomiting, patients", "setting": "all doses, 35 patients", "value": 5.7, "unit": "%"}, {"measurement": "Vomiting, patients", "setting": "all doses, 35 patients", "value": 54.3, "unit": "%"}, {"measurement": "Treatment-related changes in haematology, clinical chemistry, vital signs, ECG or physical findings", "setting": "any patient", "value": "No clinically significant treatment-related changes"}, {"measurement": "Patients who died as a result of an AE", "setting": "not considered AZD1208-related by the investigator", "value": 2.9, "unit": "%"}, {"measurement": "Patients reporting treatment-related SAEs", "setting": "one patient, three SAEs (vomiting, fatigue, general physical health deterioration)", "value": 2.9, "unit": "%"}, {"measurement": "Doses tolerated as monotherapy", "setting": "solid tumour study", "value": "up to 700 mg QD"}, {"measurement": "Maximum tolerated dose (MTD)", "setting": "solid tumour study", "value": "could not be determined"}]}]}
